Assay results: PubChem BioAssay (NCI)
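GI50 is the concentration that inhibits growth by half. TGI marks complete inhibition of growth.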

Assays:
Assay in all cases: NCI-60 cell line screen, 384-well format
MDA-MB-231 breast = tested on: MDA-MB-231 breast
DU-145 prostate = tested on: DU-145 prostate
SK-MEL-28 melanoma = tested on: SK-MEL-28 melanoma
NCI/ADR-RES ovarian = tested on: NCI/ADR-RES ovarian
MDA-MB-468 breast = tested on: MDA-MB-468 breast
EKVX NSCLC = tested on: EKVX NSCLC
A549 NSCLC = tested on: A549 NSCLC
HL-60(TB) leukemia = tested on: HL-60(TB) leukemia
NCI-H322M lung = tested on: NCI-H322M lung
HCC-2998 colon = tested on: HCC-2998 colon
SF-539 CNS = tested on: SF-539 CNS
LOX IMVI melanoma = tested on: LOX IMVI melanoma
CCRF-CEM leukemia = tested on: CCRF-CEM leukemia
UO-31 renal = tested on: UO-31 renal
MALME-3M melanoma = tested on: MALME-3M melanoma
NCI-H23 lung = tested on: NCI-H23 lung
SF-295 CNS = tested on: SF-295 CNS
HT29 colon = tested on: HT29 colon
SW-620 colon = tested on: SW-620 colon
HCT-116 colon = tested on: HCT-116 colon
786-0 renal = tested on: 786-0 renal
MDA-MB-435 melanoma = tested on: MDA-MB-435 melanoma
RXF 393 renal = tested on: RXF 393 renal
OVCAR-4 ovarian = tested on: OVCAR-4 ovarian
COLO 205 colon = tested on: COLO 205 colon
NCI-H226 lung = tested on: NCI-H226 lung
NCI-H522 lung = tested on: NCI-H522 lung
HOP-62 NSCLC = tested on: HOP-62 NSCLC
OVCAR-8 ovarian = tested on: OVCAR-8 ovarian
IGROV1 ovarian = tested on: IGROV1 ovarian
NCI-H460 NSCLC = tested on: NCI-H460 NSCLC
CAKI-1 renal = tested on: CAKI-1 renal
KM12 colon = tested on: KM12 colon
TK-10 renal = tested on: TK-10 renal
SN12C renal = tested on: SN12C renal
HCT-15 colon = tested on: HCT-15 colon
PC-3 prostate = tested on: PC-3 prostate
MCF7 breast = tested on: MCF7 breast
RPMI-8226 leukemia = tested on: RPMI-8226 leukemia
A498 renal = tested on: A498 renal
SK-MEL-2 melanoma = tested on: SK-MEL-2 melanoma
T-47D breast = tested on: T-47D breast
BT-549 breast = tested on: BT-549 breast
SNB-75 CNS = tested on: SNB-75 CNS
ACHN renal = tested on: ACHN renal
UACC-257 melanoma = tested on: UACC-257 melanoma
K-562 leukemia = tested on: K-562 leukemia

NS(=O)(=O)NCCNc1nonc1C(=Nc1ccc(F)c(Br)c1)NO
GI50 (MDA-MB-231 breast): 67.2 µM
TGI (MDA-MB-231 breast): > 100 µM
GI50 (DU-145 prostate): 48.2 µM
TGI (DU-145 prostate): > 100 µM
GI50 (SK-MEL-28 melanoma): 42.7 µM
TGI (SK-MEL-28 melanoma): > 100 µM
GI50 (NCI/ADR-RES ovarian): > 100 µM
TGI (NCI/ADR-RES ovarian): > 100 µM
GI50 (MDA-MB-468 breast): 14.6 µM
TGI (MDA-MB-468 breast): 33.1 µM
GI50 (EKVX NSCLC): 31.8 µM
TGI (EKVX NSCLC): > 100 µM
GI50 (A549 NSCLC): 30.9 µM
TGI (A549 NSCLC): > 100 µM
GI50 (HL-60(TB) leukemia): 18.9 µM
TGI (HL-60(TB) leukemia): 33.2 µM
GI50 (NCI-H322M lung): 34.2 µM
TGI (NCI-H322M lung): > 100 µM
GI50 (HCC-2998 colon): 22.5 µM
TGI (HCC-2998 colon): 51.7 µM
TGI (SF-539 CNS): > 100 µM
GI50 (LOX IMVI melanoma): 34.5 µM
TGI (LOX IMVI melanoma): > 100 µM
GI50 (CCRF-CEM leukemia): 17.6 µM
TGI (CCRF-CEM leukemia): 35.3 µM
GI50 (UO-31 renal): 36 µM
TGI (UO-31 renal): > 100 µM
GI50 (MALME-3M melanoma): 30.5 µM
TGI (MALME-3M melanoma): > 100 µM
GI50 (NCI-H23 lung): 27.1 µM
TGI (NCI-H23 lung): > 100 µM
GI50 (SF-295 CNS): 11.7 µM
TGI (SF-295 CNS): > 78.6 µM
GI50 (HT29 colon): 41 µM
TGI (HT29 colon): > 100 µM
GI50 (SW-620 colon): 42.2 µM
TGI (SW-620 colon): > 100 µM
GI50 (HCT-116 colon): 36.6 µM
TGI (HCT-116 colon): > 100 µM
GI50 ([…]-0 renal): 35.1 µM
TGI (786-0 renal): > 100 µM
GI50 (MDA-MB-435 melanoma): 42.5 µM
TGI (MDA-MB-435 melanoma): > 100 µM
GI50 (RXF 393 renal): 4.11 µM
TGI (RXF 393 renal): > 31.6 µM
GI50 (OVCAR-4 ovarian): 21.4 µM
TGI (OVCAR-4 ovarian): 72.5 µM
GI50 (COLO 205 colon): 21.8 µM
TGI (COLO 205 colon): > 60.6 µM
GI50 (NCI-H226 lung): 20.8 µM
TGI (NCI-H226 lung): > 84.4 µM
GI50 (NCI-H522 lung): 16.5 µM
TGI (NCI-H522 lung): 47.7 µM
GI50 (HOP-62 NSCLC): 39.9 µM
TGI (HOP-62 NSCLC): > 100 µM
GI50 (OVCAR-8 ovarian): 46.9 µM
TGI (OVCAR-8 ovarian): > 100 µM
GI50 (IGROV1 ovarian): 37.4 µM
TGI (IGROV1 ovarian): > 100 µM
GI50 (NCI-H460 NSCLC): 27.4 µM
TGI (NCI-H460 NSCLC): 73 µM
GI50 (CAKI-1 renal): 5.66 µM
TGI (CAKI-1 renal): > 100 µM
GI50 (KM12 colon): 8.9 µM
TGI (KM12 colon): > 100 µM
GI50 (TK-10 renal): 28.8 µM
TGI (TK-10 renal): > 89.2 µM
GI50 (SN12C renal): 35.2 µM
TGI (SN12C renal): > 100 µM
GI50 (HCT-15 colon): 51.6 µM
TGI (HCT-15 colon): > 100 µM
GI50 (PC-3 prostate): 6.11 µM
TGI (PC-3 prostate): > 100 µM
GI50 (MCF7 breast): 38.8 µM
TGI (MCF7 breast): > 100 µM
GI50 (RPMI-8226 leukemia): 17.6 µM
TGI (RPMI-8226 leukemia): 35.2 µM
GI50 (A498 renal): 4.27 µM
TGI (A498 renal): > 80.2 µM
GI50 (SK-MEL-2 melanoma): 20.1 µM
TGI (SK-MEL-2 melanoma): 47.1 µM
GI50 (T-47D breast): 23.9 µM
TGI (T-47D breast): > 74.5 µM
GI50 (BT-549 breast): 5.97 µM
TGI (BT-549 breast): > 56.3 µM
GI50 (SNB-75 CNS): 21.4 µM
TGI (SNB-75 CNS): 60.2 µM
GI50 (ACHN renal): 36.6 µM
TGI (ACHN renal): > 100 µM
GI50 (UACC-257 melanoma): 28.7 µM
TGI (UACC-257 melanoma): > 82.6 µM
GI50 (K-562 leukemia): 27.8 µM
TGI (K-562 leukemia): > 100 µM

CC1(N)CCN(c2cnc(-c3cccc(Cl)c3Cl)c(N)n2)CC1
GI50 (MDA-MB-231 breast): 20.2 µM
TGI (MDA-MB-231 breast): 49.6 µM
GI50 (DU-145 prostate): 47 µM
TGI (DU-145 prostate): > 100 µM
GI50 (SK-MEL-28 melanoma): 16.7 µM
TGI (SK-MEL-28 melanoma): 30.5 µM
GI50 (NCI/ADR-RES ovarian): 17.9 µM
TGI (NCI/ADR-RES ovarian): > 71.1 µM
GI50 (MDA-MB-468 breast): 0.898 µM
TGI (MDA-MB-468 breast): 5.96 µM
GI50 (EKVX NSCLC): 8.83 µM
TGI (EKVX NSCLC): 30.8 µM
GI50 (A549 NSCLC): 30.1 µM
TGI (A549 NSCLC): > 100 µM
GI50 (HL-60(TB) leukemia): 23.4 µM
TGI (HL-60(TB) leukemia): 38.1 µM
GI50 (NCI-H322M lung): 3.73 µM
TGI (NCI-H322M lung): 47.2 µM
GI50 (HCC-2998 colon): 16 µM
TGI (HCC-2998 colon): 29.8 µM
GI50 (SF-539 CNS): 13.9 µM
TGI (SF-539 CNS): 27.7 µM
GI50 (LOX IMVI melanoma): 17.1 µM
TGI (LOX IMVI melanoma): 31 µM
GI50 (CCRF-CEM leukemia): 17 µM
TGI (CCRF-CEM leukemia): 31.2 µM
GI50 (UO-31 renal): 14.2 µM
TGI (UO-31 renal): > 100 µM
GI50 (MALME-3M melanoma): 14.8 µM
TGI (MALME-3M melanoma): 28 µM
GI50 (NCI-H23 lung): 3.66 µM
TGI (NCI-H23 lung): 23.4 µM
GI50 (SF-295 CNS): 21.5 µM
TGI (SF-295 CNS): > 55.2 µM
GI50 (HT29 colon): 18 µM
TGI (HT29 colon): 34.7 µM
GI50 (SW-620 colon): 7.58 µM
TGI (SW-620 colon): > 50.4 µM
GI50 (HCT-116 colon): 17.2 µM
TGI (HCT-116 colon): 32.1 µM
GI50 ([…]-0 renal): 11.1 µM
TGI (786-0 renal): 24 µM
GI50 (MDA-MB-435 melanoma): 22.8 µM
TGI (MDA-MB-435 melanoma): 48 µM
GI50 (RXF 393 renal): 12.2 µM
TGI (RXF 393 renal): 25.5 µM
GI50 (OVCAR-4 ovarian): 14 µM
TGI (OVCAR-4 ovarian): > 77.1 µM
GI50 (COLO 205 colon): 21.3 µM
TGI (COLO 205 colon): 41.5 µM
GI50 (NCI-H226 lung): 8.68 µM
TGI (NCI-H226 lung): 46.6 µM
GI50 (NCI-H522 lung): 2.64 µM
TGI (NCI-H522 lung): 19.2 µM
GI50 (HOP-62 NSCLC): 24.3 µM
TGI (HOP-62 NSCLC): > 74 µM
GI50 (OVCAR-8 ovarian): 27.9 µM
TGI (OVCAR-8 ovarian): > 100 µM
GI50 (IGROV1 ovarian): 8.4 µM
TGI (IGROV1 ovarian): 27 µM
GI50 (NCI-H460 NSCLC): 18.1 µM
TGI (NCI-H460 NSCLC): 33.3 µM
GI50 (CAKI-1 renal): 2.74 µM
TGI (CAKI-1 renal): 16.9 µM
GI50 (KM12 colon): 6.2 µM
TGI (KM12 colon): 20 µM
GI50 (TK-10 renal): 8.25 µM
TGI (TK-10 renal): 25 µM
GI50 (SN12C renal): 5.63 µM
TGI (SN12C renal): 42.7 µM
GI50 (HCT-15 colon): 16.6 µM
TGI (HCT-15 colon): 33.5 µM
GI50 (PC-3 prostate): 21.4 µM
TGI (PC-3 prostate): > 60.4 µM
GI50 (MCF7 breast): 15.5 µM
TGI (MCF7 breast): 29.7 µM
GI50 (RPMI-8226 leukemia): 13.9 µM
TGI (RPMI-8226 leukemia): 28.9 µM
GI50 (A498 renal): 4.27 µM
TGI (A498 renal): 19.7 µM
GI50 (SK-MEL-2 melanoma): 13.7 µM
TGI (SK-MEL-2 melanoma): 26.6 µM
GI50 (T-47D breast): 13.3 µM
TGI (T-47D breast): 27.9 µM
GI50 (BT-549 breast): 10.6 µM
TGI (BT-549 breast): 24 µM
GI50 (SNB-75 CNS): 12.3 µM
TGI (SNB-75 CNS): 38.2 µM
GI50 (ACHN renal): 10.5 µM
TGI (ACHN renal): 60.6 µM
GI50 (UACC-257 melanoma): 16.4 µM
TGI (UACC-257 melanoma): 30.1 µM
GI50 (K-562 leukemia): 0.783 µM
TGI (K-562 leukemia): 14.4 µM
